The test system of assay [1] is Influenza A/TW/70066/09 (H1N1). The assay is described as follows: microbe, parasite or virus in culture. In kind it is cell-based. Conditions: H1N1, read-out: EC50 on the inhibition of replication (viral plaque reduction assay).
Assay [2] has as its system Influenza A/TW/70058/09 (H1N1). The assay is described as follows: microbe, parasite or virus in culture. In kind it is cell-based. The note with it: H1N1, read-out: EC50 on the inhibition of replication (viral plaque reduction assay). A general note: Plaques are areas of infected cells; plaque reduction assays count them against a control.

Results on 1 molecule are retold here after US20140194392A1 (priority 2013, published 2014).

Structures are written as SMILES.

Usually EC50 stands for the midpoint of the concentration-response curve. Regarding `Nc1c(S(=O)(=O)O)cc(Nc2cccc(S(=O)(=O)CCOS(=O)(=O)O)c2)c2c1C(=O)c1ccccc1C2=O` [RB19, remazol brilliant blue R], the EC50 in assay [1] worked out at 11.9 µM; in assay [2], 9.8 µM.
